# Patent publication US4602040A, “Meclofenamic acid topical pharmaceutical composition” (Warner-Lambert Company, priority 1985, dated 1986)
# Tests used:
# [1] = solubility of the drug in water and organic solvents; format: physicochemical
# [2] = solubility in water-miscible solvents; format: physicochemical
# [3] = system: carrageenan edema; assay: carrageenan-induced paw edema, topical meclofenamic acid, C57BL/6 mice; format: in vivo
# Procedure: (§1) Method: Carrageenan edema was induced in mice by previously published methods (Levy, L., Life Sciences 8:601, 1969). Briefly, mice were injected in the left rear footpad with either 25 ul or 50 ul of a 1% solution of carrageenan in saline and in the contralateral footpad with a similar volume of saline. At various time intervals thereafter, the swelling was assessed in each of the rear footpads by mercury plethysmography.
# (§2) In this example, female C57BL/6 or CD-1 mice were used in all studies, and swelling was assessed five hours after carrageenan injection by mercury plethysmography. Net edema was determined by subtracting the volume of the saline-injected foot from the volume of the carrageenan-injected foot. Meclofenamic acid was administered either topically or perorally one hour after carrageenan injection in a vehicle containing 50% PEG 400 monolaurate, 10 lantrol AWS, and 40% isopropyl alcohol. When applied topically, the appropriate hindpaw was dipped to the hairline in the meclofenamic acid solution or vehicle and rubbed gently for 15 seconds by a technician wearing rubber gloves. Approximately 50 ul of the meclofenamic acid or vehicle solution was used to treat each hindpaw.
# (§3) Meclofenamic acid was administered orally by gavage needle in a volume of 50 ul of the monolaurate/lantrol AWS/isopropyl alcohol vehicle used above. Statistical differences in swelling between experimental groups were determined by student's t-test.
# [4] = octanol/water partition coefficient; format: physicochemical
# [5] = system: carrageenan edema; assay: carrageenan-induced paw edema, topical versus oral / distant-site administration; format: in vivo, C57BL/6 mice
# Procedure: as §1, §2, §3
# To determine whether the observed activity of meclofenamic acid was actually due to topical rather than oral (as a result of preening) absorption, meclofenamic acid compositions (containing 1, 3 or 5% active ingredient in the above vehicle) were administered orally or topically (to the carrageenan-injected paw) and the effects on swelling were determined.
# [6] = system: carrageenan edema; assay: carrageenan-induced paw edema, topical meclofenamic acid, CD-1 mice; format: in vivo
# Procedure: as §1
# as §2, with “Approximately 50 ul of the meclofenamic acid or vehicle solution was used to treat each hindpaw.” left out
# as §3
structure (smiles),measurement,setting,value
Cc1ccc(Cl)c(Nc2ccccc2C(=O)O)c1Cl [meclofenamic acid],"solubility in glycerin, isopropyl myristate and mineral oil","[1]; glycerin, isopropyl myristate, mineral oil",insoluble
same,"solubility in propylene glycol, ethyl alcohol and linoleic acid","[1]; propylene glycol, ethyl alcohol, linoleic acid",less than 5%
same,water solubility,[1]; water,virtually water-insoluble
same,solubility in water-miscible solvents with the aid of heating,"[2]; heating up to 90° C., same solvents, compared with room temperature",more
same,solubility in water-miscible solvents,"[2]; room temperature, PEG 400, PEG-8 monolaurate, PEG glucose ethers (Glucam-E 10, P-20), PEG-75 Lanolin Oil, PPG-5-Ceteth-10 Phosphate",≤ 5%
same,sensitivity of C57BL/6 mice to the effects of meclofenamic acid,"[3]; C57BL/6 compared with CD-1 mice, topical",slightly more sensitive
same,reduction in swelling (in words),"[3]; C57BL/6 mice, topical to carrageenan-injected foot one hour after carrageenan, swelling at five hours",dose-dependent reduction in swelling
same,inhibition of swelling (maximum effect),"[3]; C57BL/6 mice, topical, 3% concentration, five hours after carrageenan",49.7%
same,octanol/water partition coefficient,[4],highly favorable
same,"inhibition of swelling, carrageenan-injected foot versus distant site","[5]; topical to carrageenan-injected foot vs distant site (saline-injected foot), 1, 3, and 5% concentrations, p<0.05",significantly (p<0.05) more inhibitory
same,"inhibition of swelling, topical versus oral","[5]; topical to carrageenan-injected foot vs oral, 1, 3, and 5% concentrations, p<0.05",significantly (p<0.05) more inhibitory
same,local anti-inflammatory activity,"[5]; topically applied, data from Examples 5 and 6",significant local anti-inflammatory activity
same,reduction in swelling (in words),"[6]; topical to carrageenan-injected foot one hour after carrageenan, swelling at five hours",dose-dependent reduction in swelling
same,inhibition of swelling (maximum effect),"[6]; topical, 5% concentration, five hours after carrageenan",36.4%
